Measured values reported in PubChem BioAssay AID1918931 (Molecular Pharmacology Branch, DTP, NCI, 2023).

System: 138582-337-R-J1-PDC complex spheroid viability
Experiment: Anticancer human tumor 138582-337-R-J1-PDC patient-derived Merkel cell tumor cell line growth inhibition
Conditions: for IC50: curve of first compound; for viability, T/C: stronger effect = lower value
Procedure, shortened: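 Complex spheroids of tumor cells with HUVEC and human MSCs, exposed to iadademstat combined with other agents. Each agent tested in half-log steps from near clinical Cmax (else 10 microM top), DMSO ≤0.25%.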

[1] = second compound 0.1 µM, first compound 0.0316 µM
[2] = second compound 0.1 µM, first compound 0.1 µM
[3] = second compound 0.1 µM, first compound 0.316 µM
[4] = second compound 0.1 µM, first compound 1 µM
[5] = second compound 0.316 µM, first compound 0.0316 µM
[6] = second compound 0.316 µM, first compound 0.1 µM
[7] = second compound 0.316 µM, first compound 0.316 µM
[8] = second compound 0.316 µM, first compound 1 µM
[9] = second compound 1 µM, first compound 0.0316 µM
[10] = second compound 1 µM, first compound 0.1 µM
[11] = second compound 1 µM, first compound 0.316 µM
[12] = second compound 1 µM, first compound 1 µM
[13] = second compound 3.16 µM, first compound 0.0316 µM
[14] = second compound 3.16 µM, first compound 0.1 µM
[15] = second compound 3.16 µM, first compound 0.316 µM
[16] = second compound 3.16 µM, first compound 1 µM
[17] = second compound 10 µM, first compound 0.0316 µM
[18] = second compound 10 µM, first compound 0.1 µM
[19] = second compound 10 µM, first compound 0.316 µM
[20] = second compound 10 µM, first compound 1 µM
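Throughout, for viability, T/C: 100% = DMSO vehicle control viability.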

Compound | IC50 (second compound 0.1 µM) | IC50 (second compound 0.316 µM) | IC50 (second compound 1 µM) | IC50 (second compound 3.16 µM) | IC50 (second compound 10 µM) | viability, T/C [1] | viability, T/C [2] | viability, T/C [3] | viability, T/C [4] | viability, T/C [5] | viability, T/C [6] | viability, T/C [7] | viability, T/C [8] | viability, T/C [9] | viability, T/C [10] | viability, T/C [11] | viability, T/C [12] | viability, T/C [13] | viability, T/C [14] | viability, T/C [15] | also measured
CC1COCCN1c1cc(C2(S(C)(=N)=O)CC2)nc(-c2ccnc3[nH]ccc23)n1 (stereo not given) + NC1CCC(NC2CC2c2ccccc2)CC1 | > 10000 nM | > 10000 nM | > 10000 nM | > 10000 nM | 2250 nM | 107% | 91.1% | 83.2% | 89.1% | 105% | 99% | 86.9% | 83% | 88.1% | 93.4% | 100% | 65.3% | 92.6% | 93.2% | 98% | viability, T/C (second compound 0.1 µM, first compound 3.16 µM): 63.4%; viability, T/C (second compound 0.1 µM, first compound 10 µM): 49.4%; viability, T/C (second compound 0.316 µM, first compound 3.16 µM): 64.1%; viability, T/C (second compound 0.316 µM, first compound 10 µM): 52.9%; viability, T/C (second compound 1 µM, first compound 3.16 µM): 59.8%; viability, T/C (second compound 1 µM, first compound 10 µM): 60.9%; viability, T/C [16]: 78.2%; viability, T/C (second compound 3.16 µM, first compound 3.16 µM): 63.1%; viability, T/C (second compound 3.16 µM, first compound 10 µM): 49.5%; viability, T/C [17]: 87.3%; viability, T/C [18]: 88.1%; viability, T/C [19]: 71%; viability, T/C [20]: 62.1%; viability, T/C (second compound 10 µM, first compound 3.16 µM): 46.1%; viability, T/C (second compound 10 µM, first compound 10 µM): 21.3%
O=C(C=Cn1cnc(-c2cc(C(F)(F)F)cc(C(F)(F)F)c2)n1)NNc1cnccn1 + NC1CCC(NC2CC2c2ccccc2)CC1 | 8.4 nM | 9.48 nM | 7.39 nM | 6.26 nM | 5.57 nM | 21.6% | 18.4% | 22.6% | 17.4% | 21.2% | 20.7% | 30.3% | 21.7% | 21.4% | 20.5% | 21.6% | 23.1% | 19% | 20.1% | 22.8% | viability, T/C (second compound 0.1 µM, first compound 0.00316 µM): 73.5%; viability, T/C (second compound 0.1 µM, first compound 0.01 µM): 45.8%; viability, T/C (second compound 0.316 µM, first compound 0.00316 µM): 67%; viability, T/C (second compound 0.316 µM, first compound 0.01 µM): 49.1%; viability, T/C (second compound 1 µM, first compound 0.00316 µM): 82.5%; viability, T/C (second compound 1 µM, first compound 0.01 µM): 38.4%; viability, T/C (second compound 3.16 µM, first compound 0.00316 µM): 61%; viability, T/C (second compound 3.16 µM, first compound 0.01 µM): 42.4%; viability, T/C [16]: 24.7%; viability, T/C (second compound 10 µM, first compound 0.00316 µM): 75%; viability, T/C (second compound 10 µM, first compound 0.01 µM): 24.6%; viability, T/C [17]: 11.9%; viability, T/C [18]: 18%; viability, T/C [19]: 24.5%; viability, T/C [20]: 31.8%
